Where “and” joins values, the source holds several entries; their conditions need not be identical. Equal values may be shown once.
Assays:
Assay in all cases: Post-emergence application in field trials, herbicidal activity (damage scale 0 to 100%)
Type in all cases: in vivo
[1] = system: Amaranthus retroflexus (AMARE)
Outline: (§1)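 Field sites with natural or seeded weeds were sprayed post-emergence via flat fan nozzles in 200 l/ha water plus 0.25 v/v % MSO adjuvant, solo or mixed with pyroxasulfone and other partners. Damage was scored 0–100% versus untreated plants at indicated DAT. Colby expected values were used to judge synergy.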

[2] = system: Digitaria sanguinalis (DIGSA)
Outline: as §1

[3] = system: Setaria verticillata (SETVE)
Outline: as §1

Zea mays (ZEAMX) = system: Zea mays (ZEAMX)
Outline: as §1

[4] = system: Echinochloa crus-galli (ECHCG)
Method: In the examples below, using the method of S. R. Colby (1967) “Calculating synergistic and antagonistic responses of herbicide combinations”, Weeds 15, p. 22ff., the value E, which is expected if the activity of the individual active compounds is only additive, was calculated:
[formula] • wherein • X=percent activity using active herbicide A at an application rate a; • Y=percent activity using active herbicide B (e.g. pyroxasulfone) at an application rate b; • E=expected activity (in %) by A+B at application rates a+b.
If the value found experimentally is higher than the value E calculated according to Colby, a synergistic effect is present.
On field test sites, natural weed infestation or seeded weeds were treated post-emergence of the weeds.
In the field trials, the weeds were treated as indicated below.
In the following experiments, the herbicidal activity for the individual herbicidal compositions (solo and mixture applications) was assessed at the indicated days after treatment (DAT). The assessments for the damage on undesired weeds caused by the composition was carried out using a scale from 0 to 100%, compared to the untreated control plants. Here, 0 means no damage and 100 means complete destruction of the plants.
Herbicide A-1 (50 g/l) and pyroxasulfone (85% WG) were, together with addition of 0.5% MSO (methylated seed oil) as adjuvant, formulated in water as distribution medium (water volume 200 l/ha) and sprayed with commercial flat fan nozzles.

Structure (SMILES): CCOC(=O)COc1ccccc1Oc1nc(-n2c(=O)cc(C(F)(F)F)n(C)c2=O)c(F)cc1Cl [A-1, ethyl 2-[2-[[3-chloro-5-fluoro-6-[3-methyl-2,6-dioxo-4-(trifluoromethyl)pyrimidin-1-yl]-2-pyridyl]oxy]phenoxy]acetate]
- % Herbicidal activity ([1]; 7 DAT, stage 31-49, height 10-12 cm, g ai/ha A-1 12.5, B 70, C-4 12.5): 80%
- % Herbicidal activity ([1]; 21 DAT, stage 31-49, height 10-12 cm, g ai/ha A-1 18, B 70, C-12 252): 80%
- % Herbicidal activity ([1]; 21 DAT, stage 31-49, height 10-12 cm, g ai/ha A-1 18, B 90, C-12 252): 80%
- % Herbicidal activity ([1]; 42 DAT, stage 31-49, height 10-12 cm, g ai/ha A-1 12.5, B 70, C-4 12.5): 80%
- % Herbicidal activity ([1]; 42 DAT, stage 31-49, height 10-12 cm, g ai/ha A-1 18, B 70): 90%
- % Herbicidal activity ([1]; 42 DAT, stage 31-49, height 10-12 cm, g ai/ha A-1 18, B 70, C-4 12.5): 85%
- % Herbicidal activity ([1]; 42 DAT, stage 31-49, height 10-12 cm, g ai/ha A-1 18, B 90, C-4 12.5): 85%
- % Herbicidal activity ([1]; AMARE, growth stage 31-49, height 10-12 cm, A-1 12.5 g ai/ha, 7 DAT, Table 4.1): 80%
- % Herbicidal activity ([1]; AMARE, growth stage 31-49, height 10-12 cm, A-1 12.5 g ai/ha, 21 DAT, Table 4.3): 90%
- % Herbicidal activity ([1]; AMARE, growth stage 31-49, height 10-12 cm, A-1 18 g ai/ha, 7 DAT, Table 4.1): 80% and 93%
- % Herbicidal activity ([1]; AMARE, growth stage 31-49, height 10-12 cm, A-1 18 g ai/ha, 21 DAT, Table 4.3): 80% and 92%
- % Herbicidal activity ([2]; 7 DAT, stage 22, height 10-15 cm, g ai/ha A-1 12.5, B 70, C-4 12.5): 80%
- % Herbicidal activity ([2]; 7 DAT, stage 22, height 10-15 cm, g ai/ha A-1 18, B 70, C-4 12.5): 85%
- % Herbicidal activity ([2]; 7 DAT, stage 22, height 10-15 cm, g ai/ha A-1 18, B 70, C-8 840): 80%
- % Herbicidal activity ([2]; 7 DAT, stage 22, height 10-15 cm, g ai/ha A-1 18, B 70, C-12 252): 85%
- % Herbicidal activity ([2]; 7 DAT, stage 22, height 10-15 cm, g ai/ha A-1 18, B 90, C-4 12.5): 85%
- % Herbicidal activity ([2]; 7 DAT, stage 22, height 10-15 cm, g ai/ha A-1 18, B 90, C-8 840): 80%
- % Herbicidal activity ([2]; 7 DAT, stage 22, height 10-15 cm, g ai/ha A-1 18, B 90, C-12 252): 85%
- % Herbicidal activity ([2]; 21 DAT, stage 22, height 10-15 cm, g ai/ha A-1 12.5, B 70, C-4 12.5): 70%
- % Herbicidal activity ([2]; 21 DAT, stage 22, height 10-15 cm, g ai/ha A-1 18, B 70, C-4 12.5): 80%
- % Herbicidal activity ([2]; 21 DAT, stage 22, height 10-15 cm, g ai/ha A-1 18, B 70, C-12 252): 85%
- % Herbicidal activity ([2]; 21 DAT, stage 22, height 10-15 cm, g ai/ha A-1 18, B 90, C-4 12.5): 80%
- % Herbicidal activity ([2]; 21 DAT, stage 22, height 10-15 cm, g ai/ha A-1 18, B 90, C-12 252): 85%
- % Herbicidal activity ([2]; 42 DAT, stage 22, height 10-15 cm, g ai/ha A-1 12.5, B 70): 65%
- % Herbicidal activity ([2]; 42 DAT, stage 22, height 10-15 cm, g ai/ha A-1 12.5, B 70, C-4 12.5): 60%
- % Herbicidal activity ([2]; 42 DAT, stage 22, height 10-15 cm, g ai/ha A-1 18, B 70): 80%
- % Herbicidal activity ([2]; 42 DAT, stage 22, height 10-15 cm, g ai/ha A-1 18, B 70, C-4 12.5): 70%
- % Herbicidal activity ([2]; 42 DAT, stage 22, height 10-15 cm, g ai/ha A-1 18, B 70, C-12 252): 70%
- % Herbicidal activity ([2]; 42 DAT, stage 22, height 10-15 cm, g ai/ha A-1 18, B 90): 80%
- % Herbicidal activity ([2]; 42 DAT, stage 22, height 10-15 cm, g ai/ha A-1 18, B 90, C-4 12.5): 70%
- % Herbicidal activity ([2]; 42 DAT, stage 22, height 10-15 cm, g ai/ha A-1 18, B 90, C-12 252): 70%
- % Herbicidal activity ([2]; DIGSA, growth stage 22, height 10-15 cm, A-1 12.5 g ai/ha, 7 DAT, Table 4.1): 80%
- % Herbicidal activity ([2]; DIGSA, growth stage 22, height 10-15 cm, A-1 12.5 g ai/ha, 21 DAT, Table 4.3): 70%
- % Herbicidal activity ([2]; DIGSA, growth stage 22, height 10-15 cm, A-1 18 g ai/ha, 7 DAT, Table 4.1): 80%
- % Herbicidal activity ([2]; DIGSA, growth stage 22, height 10-15 cm, A-1 18 g ai/ha, 21 DAT, Table 4.3): 80%
- % Herbicidal activity ([2]; Table 8.1, 7 DAT, stage 22, height 10-15 cm, g ai/ha A-1 18, B 70, C-12 1066): 80%
- % Herbicidal activity ([2]; Table 8.2, 21 DAT, stage 22, height 10-15 cm, g ai/ha A-1 18, B 70, C-12 1066): 80%
- % Herbicidal activity ([2]; Table 8.4, 42 DAT, stage 22, height 10-15 cm, g ai/ha A-1 18, B 70, C-12 1066): 60%
- % Herbicidal activity ([3]; 7 DAT, stage 21-23, height 8-16 cm, g ai/ha A-1 18, B 70, C-8 840): 75%
- % Herbicidal activity ([3]; 7 DAT, stage 21-23, height 8-16 cm, g ai/ha A-1 18, B 70, C-12 252): 70%
- % Herbicidal activity ([3]; 7 DAT, stage 21-23, height 8-16 cm, g ai/ha A-1 18, B 90, C-4 12.5): 80%
- % Herbicidal activity ([3]; 7 DAT, stage 21-23, height 8-16 cm, g ai/ha A-1 18, B 90, C-8 840): 75%
- % Herbicidal activity ([3]; 7 DAT, stage 21-23, height 8-16 cm, g ai/ha A-1 18, B 90, C-12 252): 70%
- % Herbicidal activity ([3]; 21 DAT, stage 21-23, height 8-16 cm, g ai/ha A-1 18, B 90, C-12 252): 65%
- % Herbicidal activity ([3]; 42 DAT, stage 21-23, height 8-16 cm, g ai/ha A-1 12.5, B 70): 50%
- % Herbicidal activity ([3]; 42 DAT, stage 21-23, height 8-16 cm, g ai/ha A-1 12.5, B 70, C-12 252): 50%
- % Herbicidal activity ([3]; 42 DAT, stage 21-23, height 8-16 cm, g ai/ha A-1 18, B 70): 70%
- % Herbicidal activity ([3]; 42 DAT, stage 21-23, height 8-16 cm, g ai/ha A-1 18, B 90, C-12 252): 50%
- % Herbicidal activity ([3]; SETVE, growth stage 21-23, height 8-16 cm, A-1 12.5 g ai/ha, 7 DAT, Table 4.1): 75%
- % Herbicidal activity ([3]; SETVE, growth stage 21-23, height 8-16 cm, A-1 12.5 g ai/ha, 21 DAT, Table 4.3): 70%
- % Herbicidal activity ([3]; SETVE, growth stage 21-23, height 8-16 cm, A-1 18 g ai/ha, 7 DAT, Table 4.1): 75%
- % Herbicidal activity ([3]; SETVE, growth stage 21-23, height 8-16 cm, A-1 18 g ai/ha, 21 DAT, Table 4.3): 75%
- % Herbicidal activity ([3]; Table 8.1, 7 DAT, stage 21-23, height 8-16 cm, g ai/ha A-1 18, B 70, C-12 1066): 75%
- % Herbicidal activity ([3]; Table 8.2, 21 DAT, stage 21-23, height 8-16 cm, g ai/ha A-1 12.5, B 70, C-12 1066): 70%
- % Herbicidal activity ([3]; Table 8.4, 42 DAT, stage 21-23, height 8-16 cm, g ai/ha A-1 12.5, B 70, C-12 1066): 60%
- % Herbicidal activity (Zea mays (ZEAMX); 7 DAT, stage 15-16, height 27-33 cm, g ai/ha A-1 12.5, B 70, C-12 252): 40%
- % Herbicidal activity (Zea mays (ZEAMX); 7 DAT, stage 15-16, height 27-33 cm, g ai/ha A-1 18, B 70, C-12 252): 40%
- % Herbicidal activity (Zea mays (ZEAMX); 7 DAT, stage 15-16, height 27-33 cm, g ai/ha A-1 18, B 90, C-4 12.5): 55%
- % Herbicidal activity (Zea mays (ZEAMX); 7 DAT, stage 15-16, height 27-33 cm, g ai/ha A-1 18, B 90, C-12 252): 40%
- % Herbicidal activity (Zea mays (ZEAMX); 21 DAT, stage 15-16, height 27-33 cm, g ai/ha A-1 12.5, B 70, C-12 252): 25%
- % Herbicidal activity (Zea mays (ZEAMX); 21 DAT, stage 15-16, height 27-33 cm, g ai/ha A-1 18, B 70, C-12 252): 30%
- % Herbicidal activity (Zea mays (ZEAMX); 21 DAT, stage 15-16, height 27-33 cm, g ai/ha A-1 18, B 90, C-12 252): 30%
- % Herbicidal activity (Zea mays (ZEAMX); 42 DAT, stage 15-16, height 27-33 cm, g ai/ha A-1 12.5, B 70, C-12 252): 15%
- % Herbicidal activity (Zea mays (ZEAMX); 42 DAT, stage 15-16, height 27-33 cm, g ai/ha A-1 18, B 70, C-12 252): 20%
- % Herbicidal activity (Zea mays (ZEAMX); 42 DAT, stage 15-16, height 27-33 cm, g ai/ha A-1 18, B 90, C-12 252): 20%
- % Herbicidal activity (Zea mays (ZEAMX); Table 8.1, 7 DAT, stage 15-16, height 50-60 cm, g ai/ha A-1 18, B 70, C-12 1066): 85%
- % Herbicidal activity (Zea mays (ZEAMX); Table 8.1, 7 DAT, stage 15-16, height 50-60 cm, g ai/ha A-1 18, B 90, C-12 1066): 85%
- % Herbicidal activity (Zea mays (ZEAMX); ZEAMX, growth stage 15-16, height 40-60 cm, A-1 18 g ai/ha, 7 DAT, Table 4.2): 85%
- % Herbicidal activity (Zea mays (ZEAMX); ZEAMX, growth stage 15-16, height 40-60 cm, A-1 18 g ai/ha, 21 DAT, Table 4.4): 80%
- % Herbicidal activity ([4]; 7 DAT, stage 23-30, height 15-20 cm, g ai/ha A-1 12.5, B 70, C-12 252): 30%
- % Herbicidal activity ([4]; 21 DAT, stage 23-30, height 15-20 cm, g ai/ha A-1 12.5, B 70, C-12 252): 30%
- % Herbicidal activity ([4]; 28 DAT, stage 23-30, height 15-20 cm, g ai/ha A-1 12.5, B 70, C-12 252): 30%
- % Herbicidal activity ([4]; ECHCG, height 20-25 cm, A-1 25 g ai/ha, 21 DAT, Table 2.3): 60%
- % Herbicidal activity ([4]; Table 8.2, 21 DAT, stage 23-30, height 15-20 cm, g ai/ha A-1 18, B 70, C-12 1066): 30%
- % Herbicidal activity ([4]; Table 8.2, 21 DAT, stage 23-30, height 15-20 cm, g ai/ha A-1 18, B 90, C-12 1066): 30%
- % Herbicidal activity ([4]; Table 8.3, 28 DAT, stage 23-30, height 15-20 cm, g ai/ha A-1 18, B 70, C-12 1066): 30%
- % Herbicidal activity ([4]; Table 8.3, 28 DAT, stage 23-30, height 15-20 cm, g ai/ha A-1 18, B 90, C-12 1066): 30%

From patent US12690589B2, “Herbicidal compositions comprising pyroxasulfone” (BASF SE, priority 2024, dated 2026)
